Patent US20110201564A1, “SUBSTITUTED 7-SULFANYLMETHYL, 7-SULFINYLMETHYL AND 7-SULFONYLMETHYL INDOLES AND USE THEREOF” (BAYER SCHERING PHARMA AKTIENGESELLSCHAFT, priority 2008, published 2011)
Read-outs that look alike come from different tables or passages of the source.

Biological target: T1, CYP3A4 (Homo sapiens, UniProt P08684)
T1 construct: using human liver microsomes (pool from various individuals); from tissue; host or cells: human liver microsomes (pool from various individuals)
Test: CYP inhibition assay with human liver microsomes
Format: in vitro ADME
Outline: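 Pooled human liver microsomes (23-233 μg/mL) incubated 15-20 min at 37° C, pH 7.4 phosphate with NADP+/G6P regenerating system, isoform-specific substrate and six test compound concentrations (top 50 or 20 μM). Metabolites quantified by LC-MS/MS; IC50 versus uninhibited formation. CYP3A4 mechanism-based check: 30 min preincubation before midazolam or testosterone.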

[1] = 30 min preincubation with test compound before substrate, read-out: CYP 3A4 Preincubation, 30 min.
[2] = without preincubation, read-out: CYP 3A4 Coincubation

T1 sequence (P08684 whole entry): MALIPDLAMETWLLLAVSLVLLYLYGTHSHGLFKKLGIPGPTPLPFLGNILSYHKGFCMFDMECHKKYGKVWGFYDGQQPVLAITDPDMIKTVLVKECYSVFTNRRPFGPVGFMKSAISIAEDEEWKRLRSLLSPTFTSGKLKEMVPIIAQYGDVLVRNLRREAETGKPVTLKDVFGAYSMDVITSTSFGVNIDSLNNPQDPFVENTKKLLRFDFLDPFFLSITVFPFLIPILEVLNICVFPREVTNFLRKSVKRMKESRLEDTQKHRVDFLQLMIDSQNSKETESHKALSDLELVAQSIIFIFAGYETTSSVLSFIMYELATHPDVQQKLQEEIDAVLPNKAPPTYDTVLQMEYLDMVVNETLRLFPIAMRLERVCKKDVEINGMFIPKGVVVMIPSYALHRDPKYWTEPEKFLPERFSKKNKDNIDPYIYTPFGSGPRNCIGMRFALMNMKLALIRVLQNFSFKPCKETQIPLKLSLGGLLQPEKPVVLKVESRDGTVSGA

IC50 [1] [µM] | IC50 [2] [µM] | SMILES
12.9 | > 20 | CS(=O)(=O)Cc1cccc2c(C3(C4CC4)CCc4cc(F)ccc43)c[nH]c12 (centres unmarked) [Example 107, 3-(1-Cyclopropyl-5-fluoro-2,3-dihydro-1H-inden-1-yl)-7-[(methylsulfonyl)methyl]-1H-indole]
19 | > 20 | CS(=O)(=O)Cc1cccc2c(C(c3ccc(Cl)cc3)C3CC3(F)F)c[nH]c12 (single isomer, unassigned) [Example 261-1, 3-[(4-Chlorophenyl)(2,2-difluorocyclopropyl)methyl]-7-[(methylsulfonyl)methyl]-1H-indole]
13.7 | > 20 | CS(=O)(=O)Cc1cc(F)cc2c(C(c3ccc(Cl)cc3F)C3CC3C#N)c[nH]c12 (single isomer, unassigned) [Example 273-1-2, 2-[(4-Chloro-2-fluorophenyl){5-fluoro-7-[(methylsulfonyl)methyl]-1H-indol-3-yl}methyl]cyclopropanecarbonitrile]
13.1 | > 20 | CS(=O)(=O)Cc1cccc2c(C(CCC#N)c3ccc(Cl)cc3F)c[nH]c12 (single isomer, unassigned) [Example 59-1, 4-(4-Chloro-2-fluorophenyl)-4-{7-[(methylsulfonyl)methyl]-1H-indol-3-yl}butanonitrile]
9.6 | > 20 | CCC(CCC#N)(c1ccc(Cl)cc1)c1c[nH]c2c(CS(C)(=O)=O)cccc12 (centres unmarked) [Example 172, 4-(4-Chlorophenyl)-4-{7-[(methylsulfonyl)methyl]-1H-indol-3-yl}hexanonitrile]
25.6 | > 40 | CS(=O)(=O)Cc1cc(F)cc2c(C(c3ccc(C(F)(F)F)cc3F)C3CC3C#N)c[nH]c12 (single isomer, unassigned) [Example 271-1-1, 2-({5-Fluoro-7-[(methylsulfonyl)methyl]-1H-indol-3-yl}[2-fluoro-4-(trifluoro-methyl)phenyl]methyl)cyclopropanecarbonitrile]
17 | > 20 | CS(=O)(=O)Cc1cccc2c(C(CCC#N)c3ccc4c(c3)OC(F)(F)O4)c[nH]c12 (centres unmarked) [Example 169, 4-(2,2-Difluoro-1,3-benzodioxol-5-yl)-4-{7-[(methylsulfonyl)methyl]-1H-indol-3-yl}butanonitrile]
> 20 | > 20 | CS(=O)(=O)Cc1cccc2c(C(c3ccc(F)cc3)c3ccc(C(F)(F)F)cc3)c[nH]c12 (centres unmarked) [Example 113, 3-{(4-Fluorophenyl) [4-(trifluoromethyl)phenyl]methyl}-7-[(methylsulfonyl)methyl]-1H-indole]
16.6 | > 20 | CS(=O)(=O)Cc1cccc2c(C(CCC#N)c3ccc4sccc4c3)c[nH]c12 (centres unmarked) [Example 73, 4-(1-Benzothiophen-5-yl)-4-{7-[(methylsulfonyl)methyl]-1H-indol-3-yl}butanonitrile]
8.8 | > 20 | CCC(CCO)(c1ccc(Cl)cc1)c1c[nH]c2c(CS(C)(=O)=O)cccc12 (centres unmarked) [Example 147, 3-(4-Chlorophenyl)-3-{7-[(methylsulfonyl)methyl]-1H-indol-3-yl}pentan-1-ol]
